Values quoted from earlier work, collected in PMC6644309 (ACS Omega, 2018).
Converted amounts (≈) assume the structure as drawn.

How the values were obtained:
[1] = in vivo
[2] = not given; remark: listed apart in the source

CCCc1nc2c(C)cc(-c3nc4ccccc4n3C)cc2n1Cc1ccc(-c2ccccc2C(=O)O)cc1 [TLM, 2-[4-[[4-methyl-6-(1-methylbenzimidazol-2-yl)-2-propylbenzimidazol-1-yl]methyl]phenyl]benzoic acid]
solubility in water (in water): 0.09 µg/mL (≈ 0.175 µM) | solubility at pH 3–7 (in words) (pH 3–7, physiological pH): practically insoluble | bioavailability [1]: 42–58% | pKa, benzimidazole (basic) group, first [2]: 4.1 | pKa, benzimidazole (basic) group, second [2]: 6.0 | pKa, carboxylic (acidic) group [2]: 3.5
